Source: patent US20240261323A1, “PLURI-IONIC COMPLEX FOR THE PREVENTION OR TREATMENT OF NEUROGENIC INFLAMMATION” (OLYS PHARMA SRL, priority 2021, published 2024)

Experiments:
[1] = system: sensory neurons myelinated by Schwann cells; assay: Neuroprotection on myelinated sensory neuron/Schwann cell coculture, cisplatin poisoning, curative protocol (co-incubation 24 h); assay type: cell-based, rat
Excerpt: The in vitro model used is a culture of sensory neurons myelinated by Schwann cells (Callizot et al., 2011, Exp Cell Res 317:2374-2383). This model, miniaturized in 96 wells, makes it possible to analyze the effects of molecules on the development of sensory neurons and on the myelination of axons by Schwann cells.
(§1) Protocol of the coculture of sensory neurons and Schwann cells: Female rats with 15 days gestation were killed by cervical dislocation (Wistar rats; January Lab) and the fetuses were removed from the uterus. Embryonic DRGs were collected and placed in an icy medium of Leibovitz 15 (L15; PanBiotech, Ref P04-27055, batch: 4590720) containing 2% Penicillin-Streptomycin (PS; PanBiotech, ref: P06-07100, batch: 7390220) and 1% bovine serum albumin (BSA; PanBiotech, Ref: P06-1391100, batch: H200403). DRGs were dissociated by trypsinization for 20 minutes (min) at 37° C. (Trypsin EDTA 1×; PanBiotech, Ref: P10-023100, batch: 3590720). The reaction was stopped by the addition of Dulbecco's modified Eagle medium (DMEM; PanBiotech, Ref: P04-03600, batch: 4080720) containing DNase I grade II (0.1 mg/ml; PanBiotech, Ref: P60-37780100, batch: H181015) and 10% fetal calf serum (FCS; Invitrogen, Ref: 10270106, batch: 2232584). The cells were then mechanically dissociated by 3 passes through a 10 ml pipette. The cells were then centrifuged at 180×g for 10 min at +4° C. on a layer of BSA (3.5%) in medium L15. The supernatant was discarded and the cell pellets were resuspended in a defined culture medium consisting of Neurobasal (Invitrogen, Ref: 21103049, batch: 2176355) supplemented with 2% B27; (Invitrogen, ref: 17504-044, batch: 2193553), L-glutamine (2 mM; PanBiotech, Ref: P04-80100, batch: 3301019), 2% PS and 50 ng/mL NGF (Sigma, Ref: N1408, L batch batch: SLCG1641). The viable cells were then counted in a Neubauer cytometer using the trypan blue exclusion test. The cells were seeded at a density of 12000 cells/wells in 96-well plates (pre-coated with poly-D-lysine; Greiner, Ref: 655940, batch: E20093UL) and have been grown at 37° C. in humidified air (95%)/C02 (5%) atmosphere. Half of the middle was changed every 2 days with fresh middle. The cells are held for 7 to 12 days to allow the proliferation of Schwann cells and sensory neurons. On day 8, the medium is supplemented with 50 μg/mL of ascorbic acid (AA; Sigma, Ref 092902, batch: 05316HJ-438) to initiate the differentiation of Schwann basal cells into myelinating Schwann cells.
Under these conditions, after 5 days of culture with AA, the myelin sheaths are detected with an anti-MAG antibody ([…]), an early marker of myelin. • A. Study of the neuroprotective properties of pluri-ionic compositions on myelinated sensory neurons after Cisplatin poisoning: curative protocol
Cis-diammineplatin (II) dichloride (cisplatin; Sigma, ref: P4394, batch: MKCL0026) was reconstituted in medium at 10 mg/ml (stock solution). The control environment was prepared under the same conditions. After 12 days of culture with AA, the primary sensory neurons were treated for 24 hours with pluri-ionic compositions in the presence or absence of cisplatin poisoning. The cisplatin preparation was used on neurons at a final concentration of 12 μM diluted in control medium for 24 hours of incubation. The pluri-ionic compositions tested are obtained by dissolution in water of lithium chloride, magnesium chloride hexahydrate and potassium chloride, and contain: • 1. KY21400: Li 10.37 mmol/kg, Mg 2.27 mmol/kg, K 16.88 mmol/kg • 2. KY21310: Li 5.76 mmol/kg, Mg 1.26 mmol/kg, K 9.38 mmol/kg • 3. KY21200: Li 1.73 mmol/kg, Mg 0.38 mmol/kg, K 2.81 mmol/kg […]

[2] = system: sensory neurons myelinated by Schwann cells; assay: Toxicity of isolated or combined ions on sensory neurons without cisplatin; assay type: cell-based, rat; details: Table 1; isolated or combined ions (chlorides), no cisplatin
Excerpt: as §1
The following conditions were tested: • Control medium • Control+cisplatin (12 μM, 24 h) • Pluri-ionic compositions KY21400, KY21310 or KY21200+cisplatin (12 μM, 24 h) • Pluri-ionic compositions KY21400, KY21310 or KY21200 • Control+individual ions at various concentrations • Control+cisplatin (12 μM, 24 h)+individual ions at various concentrations
For the evaluation of the toxicity of individual ions, the cells are fixed after 3 days of treatment. The cells are incubated with an anti-beta-tubulin mouse monoclonal antibody (1/2000, Sigma; Ref T8660-.2 mL; batch: 034M4790V) in a blocking buffer at 4° C. for 12 hours.
The cell nuclei were labeled with a fluorescent marker (Hoechst's solution, Sigma; ref: H-33258, batch: 046M4048V) in the same buffer.
For each condition, 20 images per well were taken using InCell Analyzer™ 2200 (GE Healthcare) with a magnification of 20×. The images of each well of culture were taken under the same conditions. The analysis was performed using Developer software (GE Healthcare). A total of 6 data per experimental condition was provided.
In parallel, the effect of isolated or combined ions two by two on the survival of sensory neurons and the length of neurites was also evaluated under the same conditions. The solutions are all prepared from the chlorides of the ions tested.

[3] = system: rat myelinated primary sensory neurons; assay: Neuroprotection on rat myelinated primary sensory neurons after cisplatin injury, protection protocol (2 h pretreatment); assay type: cell-based
Excerpt: as §1
Cis-diammineplatin (II) dichloride (cisplatin; Sigma, ref: P4394, batch: MKCL0026) was reconstituted in medium at 10 mg/ml (stock solution). The control environment was prepared under the same conditions. […]
The following conditions were assessed: • Control medium • Control+cisplatin (12 μM, 24 h) • Pluri-ionic compositions KY21400, KY21310 or KY21200+cisplatin (12 μM, 24 h) • Pluri-ionic compositions KY21400, KY21310 or KY21200.
This study was carried out with 6 wells per condition and duplicated for validation of the results. The data taken and analyzed are the added results of the 2 studies. […]

[4] = Table 2, isolated ions with cisplatin 12 μM, 24 h
[5] = Table 1, with cisplatin 12 μM, 24 h, composition incubated at the same time
[6] = cisplatin 12 μM, 24 h, composition co-incubated
[7] = concentrations ranging from 0.15 mg/kg to 1.2 mg/kg, same conditions

Q: How did the “Average percentage of neurite length relative to control” value [1, 4] turn out when `[K+]` [K 366 mg/kg = 9.38 mmol/kg] was run?
A: 91%

Q: And the “Mean percentage of sensory neurons number relative to control” value [1, 4]?
A: 58%

Q: And the “Mean percentage of neurite length relative to control” value [2]?
A: 115%

Q: And the “Mean percentage of sensory neurons number relative to control” value [2]?
A: 117%

Q: How did the “Mean percentage of neurite length relative to control” value [2] turn out when `[Cl-].[Cl-].[Mg+2]` [Mg 30.8 mg/kg = 1.27 mmol/kg] was run?
A: 98%

Q: And the “Mean percentage of sensory neurons number relative to control” value [2]?
A: 108%

Q: For `[Cl-].[Li+]` [Li 40 mg/kg = 5.8 mmol/kg], which “Average percentage of neurite length relative to control” value [1, 4] is on record?
A: 80%

Q: And the “Mean percentage of sensory neurons number relative to control” value [1, 4]?
A: 66%

Q: And the “Mean percentage of neurite length relative to control” value [2]?
A: 77%

Q: What about the “Mean percentage of sensory neurons number relative to control” value [2] of the same molecule?
A: 97%

Q: For `N.N.[Cl][Pt][Cl]` [cisplatin, Cis-diammineplatin (II) dichloride], which loss of neurites ([3]; cisplatin 12 μM, 24 h) is on record?
A: 51%

Q: And the cell death ([3]; cisplatin 12 μM, 24 h, composition two hours before and during cisplatin injury)?
A: 64%

Q: What about the loss of myelin ([3]; cisplatin 12 μM, 24 h, two-hour pre-treatment with composition) of the same molecule?
A: 69%

Q: What about the “Mean percentage of neurite length relative to control” value [1, 5] of the same molecule?
A: 35%

Q: What about the “Mean percentage of sensory neurons number relative to control” value [1, 5] of the same molecule?
A: 39%

Q: And the “Average percentage of neurite length relative to control” value [1, 4]?
A: 63-75%

Q: And the “Mean percentage of sensory neurons number relative to control” value [1, 4]?
A: 51-57%

Q: What about the “Mean percentage of sensory neurons number relative to control” value ([1]; Table 4, with cisplatin (12 mm, 24 h)) of the same molecule?
A: 53.1%

Q: What about the loss of myelin [1, 6] of the same molecule?
A: 78%

Q: What about the loss of neurites [1, 6] of the same molecule?
A: 65%

Q: And the “cell death of sensory neurons (dead cells)” value ([1]; cisplatin 12 μM, 24 h, composition during the 24 h of cisplatin lesion)?
A: 61%

Q: `[Mn+2]` [Manganese] was tested. Which “effect on the myelin sheath length” value [3, 7] did it give?
A: without demonstrating any significant effect

Q: And the “effect on neurite length” value [1, 7]?
A: without demonstrating any significant effect

Q: What about the “effect on neuron survival” value [1, 7] of the same molecule?
A: without demonstrating any significant effect
